In patent publication US20080279932A1, “Compounds” (priority 2005, published 2008):
Marks after values point to notes of the source that are not given here.

Tests used:
[1] = Stability of bulk material with excipients for 2 weeks at 50 C and 50 C/75% r.h. (HPLC assay); format: physicochemical; details: for HPLC Assay Results (External Standard): in % (unit assumed); for stability compared with the free base of vildagliptin: bulk and excipient mixtures, 2 weeks
Description: Stability of Bulk Material with Excipients for 2 week at 50 C and 50 C/75% r.h.
Procedure for Dry Mixtures: 25 mg of free base drug substance was weighed into sample tube and approximately 2.5 grams of mixture A, or 25 mg of Lactose was added to the tube. Weight adjustments were made for each salt.
(§1) One sample preparation per condition and one injection per sample.
Controls: A control of the drug substance with the excipients will be prepared and analyzed as a time zero data point and to test the efficiency of extracting the drug substance from the excipients.
Mixture A: (oral) mannitol/Avicel PH 102/Cutina HR 57:38:5 (m/m/m)

[2] = Racemization study; format: physicochemical
Source text: The free base in water chemically degraded and detection of racemization was not possible.

[3] = Forced decomposition (HPLC assay, 3 days); format: physicochemical; details: for HPLC Assay Results (External Standard): in % (unit assumed)
Description: Procedure: Weigh 25 mg drug substance to a test tube and add 5 ml of appropriate solution.
as §1
Dilute sample to 1 mg/mL with water for HPLC analysis.
All salt forms were tested in bulk and water.
If the newer gradient method is selected then the order of elution of the acid degradation product and the amide degradation product are reversed, with the acid degradation product eluting first about 1.8 minutes and the amide degradation product eluting second about 2.5 minutes. Only the extended stability (3 month) samples were analyzed with the gradient HPLC method.

[4] = Dissociation constant (pKa's) of LAF237 free base and salt-forming acids; format: physicochemical; details: LAF237 free base
[5] = cited from earlier work; for Dissociation Constant (pKa's), first value: first pKa of the salt-forming acid (counter-ion); for Dissociation Constant (pKa's), second value: second pKa of the salt-forming acid (counter-ion)
[6] = 1% in mixture A Dry Granulated, 2 weeks at 50/75% r.h.
[7] = 1% in mixture A Dry Granulated, 2 weeks at 50° C.
[8] = 1% in mixture A Dry Granulated, t0
[9] = 50% in Lactose Dry Granulated, 2 weeks at 50/75% r.h.
[10] = 50% in Lactose Dry Granulated, 2 weeks at 50° C.
[11] = 50% in Lactose Dry Granulated, t0

Compound: N#C[C@@H]1CCCN1C(=O)CNC12CC3CC(CC(O)(C3)C1)C2 [Free Base, (S)-1-[(3-hydroxy-1-adamantyl)amino]acetyl-2-cyano-pyrrolidine, reference compound]
- HPLC Assay Results (External Standard) [1, 6]: 83.8*
- HPLC Assay Results (External Standard) [1, 7]: 94.2*
- HPLC Assay Results (External Standard) [1, 8]: 98.1*
- HPLC Assay Results (External Standard) [1, 9]: 96.5
- HPLC Assay Results (External Standard) [1, 10]: 98.9
- HPLC Assay Results (External Standard) [1, 11]: 100.7
- HPLC Assay Results (External Standard) ([1]; Bulk, 2 weeks at 50/75% r.h.): 98.7
- HPLC Assay Results (External Standard) ([1]; Bulk, 2 weeks at 50° C.): 98.6
- HPLC Assay Results (External Standard) ([1]; Bulk, t0): 100.0
- % loss in assay value ([1]; in the presence of mixture A): large losses
- racemization ([2]; drug in the solid state): no sign of racemization
- HPLC Assay Results (External Standard) ([3]; Bulk, 80° C. (3-day)): 100.3
- HPLC Assay Results (External Standard) ([3]; Bulk, ambient (3-day)): 99.9
- HPLC Assay Results (External Standard) ([3]; H2O, 80° C. (3-day)): 7.5
- HPLC Assay Results (External Standard) ([3]; H2O, ambient (3-day)): 98.4
- stability in water ([3]; free base in water, after 3 days): complete degradation
- LAF237 remaining ([3]; peroxide sample, after three days): 3%
- stability under acidic conditions ([3]; room temperature): good stability
- pKa [4]: 7.86

Compound: tartarate
- Dissociation Constant (pKa's), first value [5]: 2.98
- Dissociation Constant (pKa's), second value [5]: 4.34

Compound: Hydrochloride Salt of Vildagliptin [Example 1]
- HPLC Assay Results (External Standard) [1, 6]: 95.5
- HPLC Assay Results (External Standard) [1, 7]: 96.6
- HPLC Assay Results (External Standard) [1, 8]: 97.3
- HPLC Assay Results (External Standard) [1, 9]: 98.7
- HPLC Assay Results (External Standard) [1, 10]: 99.7
- HPLC Assay Results (External Standard) [1, 11]: 100.8
- HPLC Assay Results (External Standard) ([1]; Bulk, 2 weeks at 50/75% r.h.): 99.6
- HPLC Assay Results (External Standard) ([1]; Bulk, 2 weeks at 50° C.): 100.5
- HPLC Assay Results (External Standard) ([1]; Bulk, t0): 100.7
- stability compared with the free base of vildagliptin [1]: better stability
- racemization ([2]; drug in the solid state): no sign of racemization
- racemization ([2]; in solution in water, 80° C.): no sign of racemization
- racemization ([2]; in solution in water, ambient): no sign of racemization
- HPLC Assay Results (External Standard) ([3]; Bulk, 80° C. (3-day)): 98.8
- HPLC Assay Results (External Standard) ([3]; Bulk, ambient (3-day)): 98.8
- HPLC Assay Results (External Standard) ([3]; H2O, 80° C. (3-day)): 95.3
- HPLC Assay Results (External Standard) ([3]; H2O, ambient (3-day)): 99.9
- stability in water ([3]; water at 80° C. after 3 days): remain stable

Compound: Hydrogen Fumarate Salt of Vildagliptin [Example 4]
- HPLC Assay Results (External Standard) [1, 6]: 96.0
- HPLC Assay Results (External Standard) [1, 7]: 94.6
- HPLC Assay Results (External Standard) [1, 8]: 96.1
- HPLC Assay Results (External Standard) [1, 9]: 98.2
- HPLC Assay Results (External Standard) [1, 10]: 98.9
- HPLC Assay Results (External Standard) [1, 11]: 99.5
- HPLC Assay Results (External Standard) ([1]; Bulk, 2 weeks at 50/75% r.h.): 98.9
- HPLC Assay Results (External Standard) ([1]; Bulk, 2 weeks at 50° C.): 99.0
- HPLC Assay Results (External Standard) ([1]; Bulk, t0): 104.0
- stability compared with the free base of vildagliptin [1]: better stability
- HPLC Assay Results (External Standard) ([3]; Bulk, 80° C. (3-day)): 98.8
- HPLC Assay Results (External Standard) ([3]; Bulk, ambient (3-day)): 102.2
- HPLC Assay Results (External Standard) ([3]; H2O, 80° C. (3-day)): 98.9
- HPLC Assay Results (External Standard) ([3]; H2O, ambient (3-day)): 101.9
- stability in water ([3]; water at 80° C. after 3 days): remain stable
- Dissociation Constant (pKa's), first value [5]: 3.03
- Dissociation Constant (pKa's), second value [5]: 4.47
